Patent publication US10597388B2, “Pyridazinone herbicides” (FMC CORPORATION, priority 2014, dated 2020)

Legend:
Assay type in all cases: in vivo
[1] = system: barnyardgrass (Echinochloa crus-galli); assay: Test C greenhouse herbicide test, pre- and postemergence
From the text: (§1) Seeds of plant species selected from blackgrass (Alopecurus myosuroides), ryegrass, Italian (Italian ryegrass, Lolium multiflorum), wheat (winter wheat, Triticum aestivum), galium (catchweed bedstraw, Galium aparine), corn (Zea mays), large crabgrass, large (large crabgrass, Digitaria sanguinalis), foxtail, giant (giant foxtail, Setaria faberii), johnsongrass (Sorghum halepense), lambsquarters (Chenopodium album), morningglory (Ipomoea coccinea), nutsedge, yellow (yellow nutsedge, Cyperus esculentus), pigweed (Amaranthus retroflexus), ragweed (common ragweed, Ambrosia elatior), soybean (Glycine max), barnyardgrass (Echinochloa crus-galli), oilseed rape (Brassica napus), waterhemp (common waterhemp, Amaranthus rudis), and velvetleaf (Abutilon theophrasti) were planted into a blend of loam soil and sand and treated preemergence with test chemicals formulated in a non-phytotoxic solvent mixture which included a surfactant.
(§2) At the same time, plants selected from these crop and weed species and also chickweed (common chickweed, Stellaria media), kochia (Kochia scoparia), and oat, wild (wild oat, Avena fatua), were planted in pots containing Redi-Earth® planting medium (Scotts Company, 14111 Scottslawn Road, Marysville, Ohio 43041) comprising spaghnum peat moss, vermiculite, wetting agent and starter nutrients and treated with postemergence applications of test chemicals formulated in the same manner. Plants ranged in height from 2 to 18 cm (1- to 4-leaf stage) for postemergence treatments. Treated plants and controls were maintained in a greenhouse for 13 to 15 d, after which time all species were compared to controls and visually evaluated. Plant response ratings, summarized in Table C, are based on a scale of 0 to 100 where 0 is no effect and 100 is complete control. A dash (-) response means no test result.

[2] = system: blackgrass (Alopecurus myosuroides); assay: as above
From the text: as §1, §2

corn (Zea mays) = assay: as above
From the text: as §1, §2

[3] = system: crabgrass, large (large crabgrass, Digitaria sanguinalis); assay: as above
From the text: as §1, §2

[4] = system: foxtail, giant (giant foxtail, Setaria faberii); assay: as above
From the text: as §1, §2

[5] = system: galium (catchweed bedstraw, Galium aparine); assay: as above
From the text: as §1, §2

[6] = system: johnsongrass (Sorghum halepense); assay: as above
From the text: as §1, §2

[7] = system: morningglory (Ipomoea coccinea); assay: as above
From the text: as §1, §2

[8] = system: oilseed rape (Brassica napus); assay: as above
From the text: as §1, §2

[9] = system: pigweed (Amaranthus retroflexus); assay: as above
From the text: as §1, §2

[10] = system: ragweed (common ragweed, Ambrosia elatior); assay: as above
From the text: as §1, §2

soybean (Glycine max) = assay: as above
From the text: as §1, §2

[11] = system: velvetleaf (Abutilon theophrasti); assay: as above
From the text: as §1, §2

[12] = system: waterhemp (common waterhemp, Amaranthus rudis); assay: as above
From the text: as §1, §2

[13] = system: wheat (winter wheat, Triticum aestivum); assay: as above
From the text: as §1, §2

kochia (Kochia scoparia) = assay: Test C greenhouse herbicide test, postemergence
Method in brief: (§3)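 Ratings are visual scores from 0 (no effect) to 100 (complete control), made against controls 13–15 d after treatment. Postemergence sprays were applied in the greenhouse to plants 2–18 cm tall (1- to 4-leaf stage) in peat-moss/vermiculite potting medium.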

[14] = system: oat, wild (wild oat, Avena fatua); assay: Test C greenhouse herbicide test, postemergence
Method in brief: as §3

[15] = Postemergence, 31 g ai/ha, 0 to 100 scale (0 no effect, 100 complete control)
[16] = Postemergence, 125 g ai/ha, scale 0 to 100, 0 is no effect, 100 is complete control
[17] = Postemergence, 250 g ai/ha, scale 0 to 100, 0 no effect, 100 complete control, 13 to 15 d
[18] = postemergence, 62 g ai/ha, scale 0 to 100, 0 no effect, 100 complete control

`CC(=O)Oc1c(C)nn(C)c(=O)c1-c1c(C)oc2ccc(C)cc12` [Compound 14, 5-(acetyloxy)-4-(2,5-dimethyl-3-benzofuranyl)-2,6-dimethyl-3(2H)-pyridazinone] was tested, and the “Barnyardgrass plant response rating” value [1, 15] was 5, the “Plant response rating, Barnyardgrass” value [1, 16] was 55 and the “Plant response rating, Barnyardgrass” value [1, 17] was 60. The “Barnyardgrass plant response rating” value [1, 18] was 5, the “Blackgrass plant response rating” value [2, 15] was 0 and the “Plant response rating, Blackgrass” value [2, 16] was 5. The “Plant response rating, Blackgrass” value [2, 17] was 20, the “Blackgrass plant response rating” value [2, 18] was 0 and the “Corn plant response rating” value (corn (Zea mays); [15]) was 0. The “Plant response rating, Corn” value (corn (Zea mays); [16]) was 0, the “Plant response rating, Corn” value (corn (Zea mays); [17]) was 5 and the “Corn plant response rating” value (corn (Zea mays); [18]) was 0. The “Crabgrass, Large plant response rating” value [3, 15] was 5, the “Plant response rating, Crabgrass, Large” value [3, 16] was 30 and the “Plant response rating, Crabgrass, Large” value [3, 17] was 35. The “Crabgrass, Large plant response rating” value [3, 18] was 5, the “Foxtail, Giant plant response rating” value [4, 15] was 20 and the “Plant response rating, Foxtail, Giant” value [4, 16] was 50. The “Plant response rating, Foxtail, Giant” value [4, 17] was 50, the “Foxtail, Giant plant response rating” value [4, 18] was 45 and the “Galium plant response rating” value [5, 15] was 50. The “Plant response rating, Galium” value [5, 16] was 80, the “Plant response rating, Galium” value [5, 17] was 90 and the “Galium plant response rating” value [5, 18] was 55. For the same compound, the “Johnsongrass plant response rating” value [6, 15] was 0, the “Plant response rating, Johnsongrass” value [6, 16] was 0 and the “Plant response rating, Johnsongrass” value [6, 17] was 5. For the same compound, the “Johnsongrass plant response rating” value [6, 18] was 0, the “Morningglory plant response rating” value [7, 15] was 65 and the “Plant response rating, Morningglory” value [7, 16] was 100. The “Plant response rating, Morningglory” value [7, 17] was 100, the “Morningglory plant response rating” value [7, 18] was 85 and the “Oilseed Rape plant response rating” value [8, 15] was 0. The “Plant response rating, Oilseed Rape” value [8, 16] was 0, the “Plant response rating, Oilseed Rape” value [8, 17] was 0 and the “Oilseed Rape plant response rating” value [8, 18] was 0. The “Pigweed plant response rating” value [9, 15] was 55, the “Plant response rating, Pigweed” value [9, 16] was 70 and the “Plant response rating, Pigweed” value [9, 17] was 90. The “Pigweed plant response rating” value [9, 18] was 70, the “Ragweed plant response rating” value [10, 15] was 15 and the “Plant response rating, Ragweed” value [10, 16] was 50. The “Plant response rating, Ragweed” value [10, 17] was 98, the “Ragweed plant response rating” value [10, 18] was 90 and the “Soybean plant response rating” value (soybean (Glycine max); [15]) was 0. The “Plant response rating, Soybean” value (soybean (Glycine max); [16]) was 5, the “Plant response rating, Soybean” value (soybean (Glycine max); [17]) was 5 and the “Soybean plant response rating” value (soybean (Glycine max); [18]) was 0. The “Velvetleaf plant response rating” value [11, 15] was 10, the “Plant response rating, Velvetleaf” value [11, 16] was 40 and the “Plant response rating, Velvetleaf” value [11, 17] was 40. The “Velvetleaf plant response rating” value [11, 18] was 20, the “Waterhemp plant response rating” value [12, 15] was 5 and the “Plant response rating, Waterhemp” value [12, 16] was 50. The “Plant response rating, Waterhemp” value [12, 17] was 40, the “Waterhemp plant response rating” value [12, 18] was 10 and the “Wheat plant response rating” value [13, 15] was 0. For the same compound, the “Plant response rating, Wheat” value [13, 16] was 5, the “Plant response rating, Wheat” value [13, 17] was 5 and the “Wheat plant response rating” value [13, 18] was 0. For the same compound, the “Kochia plant response rating” value (kochia (Kochia scoparia); [15]) was 85, the “Plant response rating, Kochia” value (kochia (Kochia scoparia); [16]) was 90 and the “Plant response rating, Kochia” value (kochia (Kochia scoparia); [17]) was 90. For the same compound, the “Kochia plant response rating” value (kochia (Kochia scoparia); [18]) was 85, the “Oat, Wild plant response rating” value [14, 15] was 10 and the “Plant response rating, Oat, Wild” value [14, 16] was 40. The “Plant response rating, Oat, Wild” value [14, 17] was 45 and the “Oat, Wild plant response rating” value [14, 18] was 30.

In the case of `CC(=O)Oc1c(C)nn(C)c(=O)c1-c1c(C)oc2c(C)cc(C)cc12` [Compound 16, 5-(acetyloxy)-2,6-dimethyl-4-(2,5,7-trimethyl-3-benzofuranyl)-3(2H)-pyridazinone], the “Barnyardgrass plant response rating” value [1, 15] is reported as 5, the “Plant response rating, Barnyardgrass” value [1, 16] is reported as 70 and the “Plant response rating, Barnyardgrass” value [1, 17] is reported as 90. For the same compound, the “Barnyardgrass plant response rating” value [1, 18] was 70, the “Blackgrass plant response rating” value [2, 15] was 0 and the “Plant response rating, Blackgrass” value [2, 16] was 5. For the same compound, the “Plant response rating, Blackgrass” value [2, 17] was 40, the “Blackgrass plant response rating” value [2, 18] was 5 and the “Corn plant response rating” value (corn (Zea mays); [15]) was 0. For the same compound, the “Plant response rating, Corn” value (corn (Zea mays); [16]) was 0, the “Plant response rating, Corn” value (corn (Zea mays); [17]) was 0 and the “Corn plant response rating” value (corn (Zea mays); [18]) was 0. The “Crabgrass, Large plant response rating” value [3, 15] was 5, the “Plant response rating, Crabgrass, Large” value [3, 16] was 20 and the “Plant response rating, Crabgrass, Large” value [3, 17] was 30. The “Crabgrass, Large plant response rating” value [3, 18] was 20, the “Foxtail, Giant plant response rating” value [4, 15] was 55 and the “Plant response rating, Foxtail, Giant” value [4, 16] was 70. For the same compound, the “Plant response rating, Foxtail, Giant” value [4, 17] was 80, the “Foxtail, Giant plant response rating” value [4, 18] was 60 and the “Galium plant response rating” value [5, 15] was 60. The “Plant response rating, Galium” value [5, 16] was 85, the “Plant response rating, Galium” value [5, 17] was 80 and the “Galium plant response rating” value [5, 18] was 80. For the same compound, the “Johnsongrass plant response rating” value [6, 15] was 0, the “Plant response rating, Johnsongrass” value [6, 16] was 0 and the “Plant response rating, Johnsongrass” value [6, 17] was 5. For the same compound, the “Johnsongrass plant response rating” value [6, 18] was 0, the “Morningglory plant response rating” value [7, 15] was 45 and the “Plant response rating, Morningglory” value [7, 16] was 60. The “Plant response rating, Morningglory” value [7, 17] was 40, the “Morningglory plant response rating” value [7, 18] was 50 and the “Oilseed Rape plant response rating” value [8, 15] was 0. The “Plant response rating, Oilseed Rape” value [8, 16] was 10, the “Plant response rating, Oilseed Rape” value [8, 17] was 0 and the “Oilseed Rape plant response rating” value [8, 18] was 0. For the same compound, the “Pigweed plant response rating” value [9, 15] was 40, the “Plant response rating, Pigweed” value [9, 16] was 30 and the “Plant response rating, Pigweed” value [9, 17] was 50. For the same compound, the “Pigweed plant response rating” value [9, 18] was 30, the “Ragweed plant response rating” value [10, 15] was 0 and the “Plant response rating, Ragweed” value [10, 16] was 0. The “Plant response rating, Ragweed” value [10, 17] was 30, the “Ragweed plant response rating” value [10, 18] was 0 and the “Soybean plant response rating” value (soybean (Glycine max); [15]) was 0. For the same compound, the “Plant response rating, Soybean” value (soybean (Glycine max); [16]) was 0, the “Plant response rating, Soybean” value (soybean (Glycine max); [17]) was 0 and the “Soybean plant response rating” value (soybean (Glycine max); [18]) was 0. The “Velvetleaf plant response rating” value [11, 15] was 5, the “Plant response rating, Velvetleaf” value [11, 16] was 20 and the “Plant response rating, Velvetleaf” value [11, 17] was 35. The “Velvetleaf plant response rating” value [11, 18] was 5, the “Waterhemp plant response rating” value [12, 15] was 5 and the “Plant response rating, Waterhemp” value [12, 16] was 5. The “Plant response rating, Waterhemp” value [12, 17] was 5, the “Waterhemp plant response rating” value [12, 18] was 5 and the “Wheat plant response rating” value [13, 15] was 0. The “Plant response rating, Wheat” value [13, 16] was 0, the “Plant response rating, Wheat” value [13, 17] was 0 and the “Wheat plant response rating” value [13, 18] was 0. For the same compound, the “Kochia plant response rating” value (kochia (Kochia scoparia); [15]) was 0, the “Plant response rating, Kochia” value (kochia (Kochia scoparia); [16]) was 20 and the “Plant response rating, Kochia” value (kochia (Kochia scoparia); [17]) was 25. For the same compound, the “Kochia plant response rating” value (kochia (Kochia scoparia); [18]) was 0, the “Oat, Wild plant response rating” value [14, 15] was 5 and the “Plant response rating, Oat, Wild” value [14, 16] was 10. For the same compound, the “Plant response rating, Oat, Wild” value [14, 17] was 40 and the “Oat, Wild plant response rating” value [14, 18] was 5.
